Test results as given in ChEMBL document CHEMBL4373717, “Coumarin-containing hybrids and their anticancer activities” (Eur J Med Chem, 2019).
Blank lines part the entries; values can stand above or below the compound they belong to.

Key:
Format in all cases: functional, cell-based
MCF7 [1] = test: Cytotoxicity against human MCF7 cells assessed as reduction in cell viability after 48 hrs by MTT assay; conditions: MCF7, 48 h
MDA-MB-231 [2] = test: Anticancer activity against human MDA-MB-231 cells by MTT assay
769-P = test: Anticancer activity against human 769-P cells by MTT assay
HepG2 = test: Anticancer activity against human HepG2 cells by MTT assay
MDA-MB-231 [3] = test: Cytotoxicity against human MDA-MB-231 cells assessed as reduction in cell viability after 24 hrs by MTT assay
MCF7 [4] = test: Cytotoxicity against human MCF7 cells assessed as reduction in cell viability after 68 hrs by MTT assay; conditions: MCF7, 68 h
HeLa = test: Cytotoxicity against human HeLa cells assessed as reduction in cell viability after 68 hrs by MTT assay
K562 = test: Cytotoxicity against human K562 cells assessed as reduction in cell viability after 68 hrs by MTT assay; conditions: K562, 68 h
A549 [5] = test: Cytotoxicity against human A549 cells assessed as reduction in cell viability after 68 hrs by MTT assay; conditions: A549, 68 h
A549 [6] = test: Cytotoxicity against human A549 cells assessed as reduction in cell viability after 24 hrs by MTT assay; conditions: A549, 24 h
A549 [7] = test: Anticancer activity against human A549 cells by MTT assay

Compound: Cc1cc(-c2cc3cc(Br)ccc3oc2=O)n(-c2nc(-c3ccccc3)cs2)n1
IC50 (MCF7 [1]): 4.03 to 31.5 µM

IC50 (MDA-MB-231 [2]): 0.383 to 13.6 µM
IC50 (HepG2): 0.383 to 13.6 µM
Compound: Cc1cc(=O)oc2cc(OCc3cn(CCCCCCCCCCCCOc4ccc5ccc(=O)oc5c4)nn3)ccc12
IC50 (769-P): 0.383 to 13.6 µM

Compound: O=C(Nc1ccc(Br)cc1)c1ccc(-n2cc(COc3cc(=O)oc4ccccc34)nn2)cc1
IC50 (MDA-MB-231 [3]; mda-mb-231): 30 to 91600 nM

IC50 (MDA-MB-231 [2]): 0.383 to 13.6 µM
IC50 (HepG2): 0.383 to 13.6 µM
Compound: O=c1ccc2ccc(OCCCCCCCCCCn3cc(COc4ccc5ccc(=O)oc5c4)nn3)cc2o1
IC50 (769-P): 0.383 to 13.6 µM

Compound: Cc1c(Cl)cccc1NC(=O)c1ccc(-n2cc(COc3cc(=O)oc4ccccc34)nn2)cc1
IC50 (MDA-MB-231 [3]; mda-mb-231): 30 to 91600 nM

Compound: Cc1c(Cc2ccc(NC(=O)Nc3ccc(F)c(Cl)c3)nc2)c(=O)oc2cc(O)c(C(C)(C)C)cc12
IC50 (MCF7 [4]): 1660 to 19400 nM
IC50 (HeLa): 1660 to 19400 nM
IC50 (K562): 1660 to 19400 nM
IC50 (A549 [5]): 1660 to 19400 nM

Compound: COc1ccc(OC)c(NC(=O)c2ccc(-n3cc(COc4cc(=O)oc5ccccc45)nn3)cc2)c1
IC50 (MDA-MB-231 [3]; mda-mb-231): 30 to 91600 nM

Compound: O=c1oc2ccccc2cc1-c1cc(-c2ccc(Cl)cc2)nc(Cc2ccc(F)cc2)n1
IC50 (MDA-MB-231 [3]; Homo sapiens, MDA-MB-231, 24 h): 2510 nM
IC50 (A549 [6]): 2510 nM

Compound: O=c1oc2ccccc2cc1-c1cc(-c2ccccc2Cl)nc(Cc2ccc(F)cc2)n1
IC50 (MDA-MB-231 [3]; Homo sapiens, MDA-MB-231, 24 h): 2150 to 28600 nM
IC50 (A549 [6]): 2150 to 28600 nM

Compound: COc1ccccc1NC(=O)Nc1ccc(Cc2c(C)c3cc(C(C)(C)C)c(O)cc3oc2=O)cn1
IC50 (MCF7 [4]): 1660 to 19400 nM
IC50 (HeLa): 1660 to 19400 nM
IC50 (K562): 1660 to 19400 nM
IC50 (A549 [5]): 1660 to 19400 nM

IC50 (MDA-MB-231 [2]): 0.383 to 13.6 µM
IC50 (HepG2): 0.383 to 13.6 µM
Compound: Cc1cc(=O)oc2cc(OCc3cn(CCCCCCCCCOc4ccc5ccc(=O)oc5c4)nn3)ccc12
IC50 (769-P): 0.383 to 13.6 µM

Compound: Cc1cc(-c2cc3ccccc3oc2=O)n(-c2nc(-c3ccccc3)cs2)n1
IC50 (MCF7 [1]): 4.03 to 31.5 µM

IC50 (MDA-MB-231 [2]): 0.383 to 13.6 µM
IC50 (HepG2): 0.383 to 13.6 µM
Compound: O=c1ccc2ccc(OCCCCn3cc(COc4ccc5ccc(=O)oc5c4)nn3)cc2o1
IC50 (769-P): 0.383 to 13.6 µM

Compound: COc1cccc(-c2cc(-c3cc4ccccc4oc3=O)nc(Cc3ccc(F)cc3)n2)c1
IC50 (MDA-MB-231 [3]; Homo sapiens, MDA-MB-231, 24 h): 2150 to 28600 nM
IC50 (A549 [6]): 2150 to 28600 nM

IC50 (MDA-MB-231 [2]): 0.383 to 13.6 µM
IC50 (HepG2): 0.383 to 13.6 µM
Compound: Cc1cc(=O)oc2cc(OCc3cn(CCCOc4ccc5ccc(=O)oc5c4)nn3)ccc12
IC50 (769-P): 0.383 to 13.6 µM

Compound: COc1ccc(-c2csc(-n3nc(C)cc3-c3cc4ccccc4oc3=O)n2)cc1
IC50 (MCF7 [1]): 4.03 to 31.5 µM

Compound: Cc1cccc(C)c1NC(=O)c1ccc(-n2cc(COc3cc(=O)oc4ccccc34)nn2)cc1
IC50 (MDA-MB-231 [3]; mda-mb-231): 30 to 91600 nM

Compound: COc1ccc(-c2cc(-c3cc4ccccc4oc3=O)nc(Cc3ccc(F)cc3)n2)cc1
IC50 (MDA-MB-231 [3]; Homo sapiens, MDA-MB-231, 24 h): 2230 nM
IC50 (A549 [6]): 2230 nM

Compound: O=Cc1c(-c2cc3cc(Br)ccc3oc2=O)[nH]c2ccccc12
IC50 (MCF7 [1]): 5.5 to 100 µM

Compound: Cc1cc(-c2cc3cc(Cl)ccc3oc2=O)n(-c2nc(-c3ccccc3)cs2)n1
IC50 (MCF7 [1]): 4.03 to 31.5 µM

Compound: Cc1ccc(NC(=O)c2ccc(-n3cc(COc4cc(=O)oc5ccccc45)nn3)cc2)c(C)c1
IC50 (MDA-MB-231 [3]; mda-mb-231): 30 to 91600 nM

Compound: COc1ccccc1-c1cc(-c2cc3ccccc3oc2=O)nc(Cc2ccc(F)cc2)n1
IC50 (MDA-MB-231 [3]; Homo sapiens, MDA-MB-231, 24 h): 2150 to 28600 nM
IC50 (A549 [6]): 2150 to 28600 nM

Compound: O=c1oc2ccccc2cc1-c1cc(-c2ccccc2Br)nc(Cc2ccc(F)cc2)n1
IC50 (MDA-MB-231 [3]; Homo sapiens, MDA-MB-231, 24 h): 2150 to 28600 nM
IC50 (A549 [6]): 2150 to 28600 nM

Compound: Cc1ccccc1-c1cc(-c2cc3ccccc3oc2=O)nc(Cc2ccc(F)cc2)n1
IC50 (MDA-MB-231 [3]; Homo sapiens, MDA-MB-231, 24 h): 2150 to 28600 nM
IC50 (A549 [6]): 2150 to 28600 nM

IC50 (MDA-MB-231 [2]): 0.383 to 13.6 µM
IC50 (HepG2): 0.383 to 13.6 µM
Compound: Cc1cc(=O)oc2cc(OCc3cn(CCOc4ccc5ccc(=O)oc5c4)nn3)ccc12
IC50 (769-P): 0.383 to 13.6 µM

Compound: Cc1cc(-c2cc3cc(Br)ccc3oc2=O)n(-c2nc(-c3ccc(Br)cc3)cs2)n1
IC50 (MCF7 [1]): 4.03 to 31.5 µM

IC50 (MDA-MB-231 [2]): 0.383 to 13.6 µM
IC50 (HepG2): 0.383 to 13.6 µM
Compound: O=c1ccc2ccc(OCCCCCCn3cc(COc4ccc5ccc(=O)oc5c4)nn3)cc2o1
IC50 (769-P): 0.383 to 13.6 µM

IC50 (A549 [7]): 350 nM
Compound: CC(=O)O[C@H]1C(=O)[C@@]2(C)[C@H]([C@H](OC(=O)c3ccccc3)[C@]3(O)C[C@H](OC(=O)[C@H](O)[C@@H](NC(=O)c4ccccc4)c4ccccc4)C(C)=C1C3(C)C)[C@]1(OC(C)=O)CO[C@@H]1C[C@@H]2O [PACLITAXEL]
IC50 (MCF7 [4]): 3.3 to 14 nM
IC50 (HeLa): 3.3 to 14 nM
IC50 (K562): 3.3 to 14 nM
IC50 (A549 [5]): 3.3 to 14 nM

Compound: CC(=O)c1ccc(NC(=O)Nc2ccc(Cc3c(C)c4cc(C(C)(C)C)c(O)cc4oc3=O)cn2)cc1
IC50 (MCF7 [4]): 1660 to 19400 nM
IC50 (HeLa): 1660 to 19400 nM
IC50 (K562): 1660 to 19400 nM
IC50 (A549 [5]): 1660 to 19400 nM

Compound: Cc1cc(-c2cc3cc(Br)ccc3oc2=O)n(-c2nc(-c3ccc(Cl)cc3)cs2)n1
IC50 (MCF7 [1]): 4.03 to 31.5 µM

Compound: CCOc1cc(Br)cc2c1OCC([N+](=O)[O-])=C2
IC50 (MCF7 [4]): 950 to 6430 nM
IC50 (HeLa): 950 to 6430 nM
IC50 (K562): 950 to 6430 nM
IC50 (A549 [5]): 950 to 6430 nM

Compound: Cc1c(Cc2ccc(NC(=O)Nc3ccccc3)nc2)c(=O)oc2cc(O)c(C(C)(C)C)cc12
IC50 (MCF7 [4]): 1660 to 19400 nM
IC50 (HeLa): 1660 to 19400 nM
IC50 (K562): 1660 to 19400 nM
IC50 (A549 [5]): 1660 to 19400 nM

Compound: Cc1cc(-c2cc3cc(Cl)ccc3oc2=O)n(-c2nc(-c3ccc(Br)cc3)cs2)n1
IC50 (MCF7 [1]): 4.03 to 31.5 µM
